Experimental findings from patent publication EP4810499A1, “TREATMENT OF BEHÇET'S DISEASE” (Ganzhou Hemay Pharmaceutical, Co., Ltd, priority 2023, dated 2025) are described below.

For this data set, the system named is healthy Chinese subjects. As to the kind of experiment: Phase I clinical trial, multiple oral administrations (Example 6). It counts as in vivo, human. As to conditions: 15 mg BID, 30 mg BID, 60 mg BID and 75 mg BID, 36 healthy Chinese subjects. The procedure: A Phase I clinical trial enrolling a total of 36 healthy Chinese subjects was conducted, with multiple oral administrations of the compound of Example 2 at doses of 15 mg BID, 30 mg BID, 60 mg BID and 75 mg BID, and placebo, respectively.

For `CCOc1cc([C@@H](CS(C)(=O)=O)N2C(=O)c3csc(NC(C)=O)c3C2=O)ccc1OC` [Example 2, (S)-N-[5-[1-(3-ethoxy-4-methoxyphenyl)-2-(methylsulfonyl)ethyl]-4,6-dioxo-5,6-dihydro-4H-thieno[3,4-c]pyrrol-1-yl]acetamide], the safety and tolerability result is “favorable safety and good tolerability”.
